Source: US7247634B2, “Rifamycin derivatives effective against drug-resistant microbes” (Cumbre Pharmaceuticals Inc., priority 2004, dated 2007)
Converted amounts (≈) assume the structure as drawn.

Assays:
Format in all cases: cell-based
[1] = system: Streptococcus pyogenes ATCC19615; test: MIC, microbroth dilution (NCCLS); conditions: rifS strain, THY Broth, 37° C., read-out: Antimicrobial activity (MIC)
[2] = system: Enterococcus faecalis ATCC29212; test: MIC, microbroth dilution (NCCLS); conditions: rifS strain, BHI Broth, 37° C., read-out: Antimicrobial activity (MIC)
[3] = system: Staphylococcus epidermidis ATCC12228; test: MIC, microbroth dilution (NCCLS); conditions: rifS strain, Cation-Adjusted Mueller-Hinton Broth, 37° C., read-out: Antimicrobial activity (MIC)
[4] = system: Mycobacterium smegmatis ATCC700084; test: MIC, microbroth dilution (NCCLS); conditions: Mycolicibacterium smegmatis, rifS strain, Middlebrook Broth plus ADC Enrichment, 37° C., read-out: Antimicrobial activity (MIC)
[5] = system: Haemophilus influenzae ATCC10211; test: MIC, microbroth dilution (NCCLS); conditions: rifS strain, BHI Broth with NAD and hematin, 37° C., read-out: Antimicrobial activity (MIC)
[6] = system: Staphylococcus aureus ATCC29213 rpoB^D417Y; test: microbe, parasite or virus in culture; conditions: ATCC29213, read-out: Antimicrobial activity (MIC)
Experimental: (§1) Representative compounds were assayed for antimicrobial activity as follows: Minimum Inhibitory Concentrations (“MICs”) were determined by the microbroth dilution method as per NCCLS guidelines (National Committee for Clinical Laboratory Standards. 2000. Methods for dilution antimicrobial susceptibility tests for bacteria that grow aerobically, 5th ed. M7-A5. National Committee for Clinical Laboratory Standards, Wayne, Pa.), except that all growth incubations were conducted at 37° C. Bacterial cultures were tested in the following bacteriological media: S. aureus, S. epidermidis, and E. coli in Cation-Adjusted Mueller-Hinton Broth, S. pneumoniae in THY Broth supplemented with 1 mg/mL catalase under 5% CO2 atmosphere, S. pyogenes in THY Broth, E. faecalis in BHI Broth, H. influenzae in BHI Broth supplemented with 0.75 μL of 1 mg/mL NAD and 150 μL of 1 mg/ml hematin per 5 mL, and M. smegmatis in Middlebrook Broth plus ADC Enrichment.
(§2) S. aureus ATCC 29213 RpoB^H418Y is a rifampin-resistant strain with a mutation in RNA polymerase, the biological target of rifamycin antibiotics. […] S. aureus EN1252a gyrA^S84L grlA^S80F is a quinolone-resistant strain due to double mutations to DNA gyrase and topoisomerase IV, the two biological targets for quinolone antibiotics.

[7] = system: Staphylococcus aureus EN1252a gyrA^S84L grlA^S80F; test: microbe, parasite or virus in culture; conditions: read-out: Antimicrobial activity (MIC)
Experimental: as §1, §2

[8] = system: Staphylococcus aureus ATCC29213 rpoB^H418Y; test: microbe, parasite or virus in culture; conditions: ATCC29213, read-out: Antimicrobial activity (MIC)
Experimental: as §1, §2

[9] = system: Escherichia coli ATCC25922; test: MIC, microbroth dilution (NCCLS); conditions: rifS strain, Cation-Adjusted Mueller-Hinton Broth, 37° C., read-out: Antimicrobial activity (MIC)
[10] = system: Streptococcus pneumoniae ATCC6303; test: MIC, microbroth dilution (NCCLS); conditions: rifS strain, THY Broth with 1 mg/mL catalase, 5% CO2, 37° C., read-out: Antimicrobial activity (MIC)
[11] = system: Staphylococcus aureus ATCC29213; test: MIC, microbroth dilution (NCCLS); conditions: rifS strain, Cation-Adjusted Mueller-Hinton Broth, 37° C., read-out: Antimicrobial activity (MIC)

| Compound | MIC [1] | MIC [2] | MIC [3] | MIC [4] | MIC [5] | MIC [6] | MIC [7] | MIC [8] | MIC [9] | MIC [10] | MIC [11] |
| --- | --- | --- | --- | --- | --- | --- | --- | --- | --- | --- | --- |
| COc1c(N2CCCC(NC(=O)C3CN(C4=C5NC(=O)/C(C)=C\C=C\[C@H](C)[C@H](O)[C@@H](C)[C@@H](O)[C@@H](C)[C@H](OC(C)=O)[C@H](C)[C@@H](OC)/C=C/O[C@@]6(C)Oc7c(C)c(O)c(c(c7C6=O)C4=O)C5=O)C3)C2)c(F)cc2c(=O)c(C(=O)O)cn(C3CC3)c12 (mixture of isomers) [Example 46, 3-{3-[1-(3-Carboxy-1-cyclopropyl-6-fluoro-8-methoxy-4-oxo-1,4-dihydroquinolin-7-yl)-piperidin-3-ylcarbamoyl]-azetidin-1-yl}rifamycin S] | 0.008 to 0.063 µg/mL | 2 to 32 µg/mL | 0.008 to 0.063 µg/mL | 0.5 to 64 µg/mL | 0.125 to 2 µg/mL | 0.06 to 32 µg/mL | 0.004 to 0.5 µg/mL | 0.06 to 16 µg/mL | 0.125 to 8 µg/mL | 0.008 to 0.125 µg/mL | 0.004 to 0.5 µg/mL |
| CO[C@H]1/C=C/O[C@@]2(C)Oc3c(C)c(O)c4c(c3C2=O)C(=O)C(NC2CCN(c3c(F)cc5c(=O)c(C(=O)O)cn(C6CC6)c5c3Cl)C2)=C(NC(=O)/C(C)=C\C=C\[C@H](C)[C@H](O)[C@@H](C)[C@@H](O)[C@@H](C)[C@H](OC(C)=O)[C@@H]1C)C4=O (mixture of isomers) [Example 7, (R/S)-3-[1-(3-Carboxy-8-chloro-1-cyclopropyl-6-fluoro-4-oxo-1,4-dihydroquinolin-7-yl)-pyrrolidin-3-ylamino]rifamycin S] | 0.008 to 0.063 µg/mL (≈ 0.00755 to 0.0595 µM) | 2 to 32 µg/mL (≈ 1.89 to 30.2 µM) | 0.008 to 0.063 µg/mL (≈ 0.00755 to 0.0595 µM) | 0.5 to 64 µg/mL | 0.125 to 2 µg/mL (≈ 0.118 to 1.89 µM) | 0.06 to 32 µg/mL (≈ 0.0566 to 30.2 µM) | 0.004 to 0.5 µg/mL (≈ 0.00378 to 0.472 µM) | 0.06 to 16 µg/mL (≈ 0.0566 to 15.1 µM) | 0.125 to 8 µg/mL (≈ 0.118 to 7.55 µM) | 0.008 to 0.125 µg/mL (≈ 0.00755 to 0.118 µM) | 0.004 to 0.5 µg/mL (≈ 0.00378 to 0.472 µM) |
| CO[C@H]1/C=C/O[C@@]2(C)Oc3c(C)c(O)c4c(O)c(c(CNC5CCN(c6c(F)cc7c(=O)c(C(=O)O)cn(C8CC8)c7c6Cl)C5)c(O)c4c3C2=O)NC(=O)/C(C)=C\C=C\[C@H](C)[C@H](O)[C@@H](C)[C@@H](O)[C@@H](C)[C@H](OC(C)=O)[C@@H]1C (mixture of isomers) [Example 13, (R/S)-3-[1-(8-Chloro-3-carboxy-1-cyclopropyl-6-fluoro-4-oxo-1,4-dihydroquinolin-7-yl)-pyrrolidinyl-3-aminomethyl]rifamycin SV] | 0.008 to 0.063 µg/mL (≈ 0.00744 to 0.0586 µM) | 2 to 32 µg/mL (≈ 1.86 to 29.8 µM) | 0.008 to 0.063 µg/mL (≈ 0.00744 to 0.0586 µM) | 0.5 to 64 µg/mL | 0.125 to 2 µg/mL (≈ 0.116 to 1.86 µM) | 0.06 to 32 µg/mL (≈ 0.0558 to 29.8 µM) | 0.004 to 0.5 µg/mL (≈ 0.00372 to 0.465 µM) | 0.06 to 16 µg/mL (≈ 0.0558 to 14.9 µM) | 0.125 to 8 µg/mL (≈ 0.116 to 7.44 µM) | 0.008 to 0.125 µg/mL (≈ 0.00744 to 0.116 µM) | 0.004 to 0.5 µg/mL (≈ 0.00372 to 0.465 µM) |
| COc1c(N2CCC(NC3=C4NC(=O)/C(C)=C\C=C\[C@H](C)[C@H](O)[C@@H](C)[C@@H](O)[C@@H](C)[C@H](OC(C)=O)[C@H](C)[C@@H](OC)/C=C/O[C@@]5(C)Oc6c(C)c(O)c(c(c6C5=O)C3=O)C4=O)C2)c(F)cc2c(=O)c(C(=O)O)cn(C3CC3)c12 (mixture of isomers) [Example 27] | 0.008 to 0.063 µg/mL (≈ 0.00758 to 0.0597 µM) | 2 to 32 µg/mL (≈ 1.9 to 30.3 µM) | 0.008 to 0.063 µg/mL (≈ 0.00758 to 0.0597 µM) | 0.5 to 64 µg/mL | 0.125 to 2 µg/mL (≈ 0.118 to 1.9 µM) | 0.06 to 32 µg/mL (≈ 0.0569 to 30.3 µM) | 0.004 to 0.5 µg/mL (≈ 0.00379 to 0.474 µM) | 0.06 to 16 µg/mL (≈ 0.0569 to 15.2 µM) | 0.125 to 8 µg/mL (≈ 0.118 to 7.58 µM) | 0.008 to 0.125 µg/mL (≈ 0.00758 to 0.118 µM) | 0.004 to 0.5 µg/mL (≈ 0.00379 to 0.474 µM) |
| COc1c(N2CCC(N(C)C3=C4NC(=O)/C(C)=C\C=C\[C@H](C)[C@H](O)[C@@H](C)[C@@H](O)[C@@H](C)[C@H](OC(C)=O)[C@H](C)[C@@H](OC)/C=C/O[C@@]5(C)Oc6c(C)c(O)c(c(c6C5=O)C3=O)C4=O)C2)c(F)cc2c(=O)c(C(=O)O)cn(C3CC3)c12 (mixture of isomers) [Example 28] | 0.008 to 0.063 µg/mL (≈ 0.00748 to 0.0589 µM) | 2 to 32 µg/mL (≈ 1.87 to 29.9 µM) | 0.008 to 0.063 µg/mL (≈ 0.00748 to 0.0589 µM) | 0.5 to 64 µg/mL | 0.125 to 2 µg/mL (≈ 0.117 to 1.87 µM) | 0.06 to 32 µg/mL (≈ 0.0561 to 29.9 µM) | 0.004 to 0.5 µg/mL (≈ 0.00374 to 0.468 µM) | 0.06 to 16 µg/mL (≈ 0.0561 to 15 µM) | 0.125 to 8 µg/mL (≈ 0.117 to 7.48 µM) | 0.008 to 0.125 µg/mL (≈ 0.00748 to 0.117 µM) | 0.004 to 0.5 µg/mL (≈ 0.00374 to 0.468 µM) |
